# Like-named read-outs stand apart in the source and are kept apart here.
# Tests used:
# MDBK line = experiment: MTT Cell Proliferation Assay, MDBK cells; assay type: cell-based, bovine
# How it was run: (§1)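 Each concentration ran in quadruplicate across duplicate plates, with compounds serially diluted in DMSO and delivered at 0.5% DMSO in 0.5% FBS medium for 3 days.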
# [1] = system: epithelial carcinoma A431 cell line; experiment: MTT Cell Proliferation Assay, A431 cells; assay type: cell-based
# How it was run: as §1
# EGFR = molecular target: T1, EGFR (Homo sapiens, UniProt P00533); experiment: EGFR in-cell Western (ICW) screening protocol (EGFR inhibition assay); assay type: cell-based; details: for ICW Screen: Table 11; for ICW Screen / ICW assay: % Inhibition of EGF dependent EGFR phosphorylation in A431 cells, compound 125 μM in assay; for ICW assay: Table 10
# T1 construct: host or cells: A431
# T1 sequence (P00533 25-1210): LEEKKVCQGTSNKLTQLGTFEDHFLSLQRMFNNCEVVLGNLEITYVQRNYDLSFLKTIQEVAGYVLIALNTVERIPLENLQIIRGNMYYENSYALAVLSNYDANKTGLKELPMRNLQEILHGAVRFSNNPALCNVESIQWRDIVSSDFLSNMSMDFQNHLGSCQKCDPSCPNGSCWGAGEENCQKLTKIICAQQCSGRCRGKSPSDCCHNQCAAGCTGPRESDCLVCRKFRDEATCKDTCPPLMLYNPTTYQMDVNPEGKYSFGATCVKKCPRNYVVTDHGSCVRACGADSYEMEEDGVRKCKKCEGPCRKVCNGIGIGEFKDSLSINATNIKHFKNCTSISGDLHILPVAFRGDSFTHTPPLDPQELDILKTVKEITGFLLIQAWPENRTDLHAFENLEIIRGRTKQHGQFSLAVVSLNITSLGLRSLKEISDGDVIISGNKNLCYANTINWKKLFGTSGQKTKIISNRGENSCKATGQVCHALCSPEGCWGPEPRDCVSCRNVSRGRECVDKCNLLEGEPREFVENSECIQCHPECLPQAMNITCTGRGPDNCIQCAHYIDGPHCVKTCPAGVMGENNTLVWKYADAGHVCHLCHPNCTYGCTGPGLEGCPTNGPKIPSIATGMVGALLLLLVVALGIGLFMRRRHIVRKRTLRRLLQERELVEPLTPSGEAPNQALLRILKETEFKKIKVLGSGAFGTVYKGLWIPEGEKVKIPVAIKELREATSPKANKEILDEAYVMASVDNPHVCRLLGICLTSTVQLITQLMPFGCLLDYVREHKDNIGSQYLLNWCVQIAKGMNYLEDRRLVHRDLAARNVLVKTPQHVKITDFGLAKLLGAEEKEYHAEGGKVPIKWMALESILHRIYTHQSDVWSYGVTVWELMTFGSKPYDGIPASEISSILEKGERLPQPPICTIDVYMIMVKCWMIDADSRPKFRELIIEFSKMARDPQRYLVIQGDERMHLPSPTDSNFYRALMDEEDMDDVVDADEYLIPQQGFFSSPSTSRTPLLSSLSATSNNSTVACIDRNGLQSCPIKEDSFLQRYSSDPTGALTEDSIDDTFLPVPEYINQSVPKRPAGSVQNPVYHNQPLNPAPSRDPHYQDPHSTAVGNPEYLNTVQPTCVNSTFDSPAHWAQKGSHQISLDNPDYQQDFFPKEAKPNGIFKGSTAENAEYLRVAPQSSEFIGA
# How it was run: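 In-cell Western read-out: fixed A431 cells were co-stained for total EGFR and phospho-EGFR (Tyr1173; some runs Tyr1045). Before fixation, cells were serum-starved for 2 h, exposed to compound for 4 h, then given EGF for 10 min, usually at 10 ng/ml final (6.6 or 12.5 ng/ml in some runs).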
# [2] = Bos taurus, MDBK, Table 11, second of x/y(ratio): MDBK, unit not printed (doses in μM), read-out: MTT Screen (second value)
# [3] = Homo sapiens, A-431, 72 h, Table 11, first of x/y(ratio): A431, unit not printed (doses in μM), read-out: MTT Screen (first value)
# [4] = Bos taurus, MDBK, Table 11, second of x/y(ratio): MDBK, unit inferred, read-out: MTT Follow-up (second value)
# [5] = Homo sapiens, A-431, Table 11, first of x/y(ratio): A431, unit inferred, read-out: MTT Follow-up (first value)
# [6] = Table 11, second of x/y(ratio): MDBK, unit not printed (doses in μM)
# [7] = second value of 'a/b (c)', taken as MDBK cells, read-out: MTT Screen, second value of cell
# [8] = first value of 'a/b (c)', taken as A431 cells, read-out: MTT Screen, first value of cell
# [9] = Table 11, second of x/y(ratio): MDBK, unit not printed (doses in μM), read-out: MTT Screen (second value)
# [10] = Table 11, first of x/y(ratio): A431, unit not printed (doses in μM), read-out: MTT Screen (first value)
# [11] = Bos taurus, MDBK, second value of 'a/b (c)', taken as MDBK cells, read-out: MTT Screen, second value of cell
# [12] = Homo sapiens, A-431, first value of 'a/b (c)', taken as A431 cells, read-out: MTT Screen, first value of cell
# [13] = Homo sapiens, A-431, Table 11, first of x/y(ratio): A431, unit not printed (doses in μM), read-out: MTT Screen (first value)
# [14] = Bos taurus, MDBK, 72 h, Table 10, second of x/y(ratio): MDBK, three day treatment, unit not printed (doses in μM), read-out: MTT assay (second value)
# [15] = Homo sapiens, A-431, 72 h, Table 10, first of x/y(ratio): A431, three day treatment, unit not printed (doses in μM), read-out: MTT assay (first value)
Structure (SMILES),ICW Screen (ICW Inhibition) (EGFR),IC50 (MDBK line; [11]) [µM],"IC50 [1, 12] [µM]",other results
CC(C)c1ccc2oc(=O)cc(CN3CCN(Cc4ccc5c(c4)OCO5)CC3)c2c1 [AD4-10192],,,,"IC50 (MDBK line; [2]): 43.3 µM; IC50 [1, 3]: 16.5 µM; ICW Screen (EGFR): 16.772"
COc1ccc(N2CCN(Cc3cc(=O)oc4cc5c(cc34)OCO5)CC2)cc1 [AD4-10209],,,,"IC50 (MDBK line; [4]): 50.1 µM; IC50 [1, 5]: 2.5 µM; ICW Screen (EGFR): −10.6"
COc1ccc(N2CCN(Cc3cc(=O)oc4c(C)c(O)ccc34)CC2)cc1 [AD4-10217],,,,"MTT Screen (second value) (MDBK line; [6]): non-convergent; IC50 [1, 3]: 14 µM; ICW Screen (EGFR): −1.007"
CC(C)(C)C(=O)NC(=S)Nc1ccc(S(=O)(=O)NCCc2ccccc2)cc1 [AD4-10313],30.774,,,"IC50 (MDBK line; [7]): 17.6 µM; IC50 [1, 8]: 20.9 µM"
Cc1c(O)ccc2c(CN3CCN(Cc4ccc5c(c4)OCO5)CC3)cc(=O)oc12 [AD4-10491],,,,"IC50 (MDBK line; [9]): 40.6 µM; IC50 [1, 10]: 22.2 µM; ICW Screen (EGFR): 29.223"
CC(C)CC(=O)NC(=S)Nc1ccc(S(=O)(=O)NCCc2ccccc2)cc1 [AD4-10608],62.846,5.35,6.33,
O=C(NC(=S)Nc1ccc(S(=O)(=O)NCCc2ccccc2)cc1)C1CCCC1 [AD4-10609],43.828,6.34,6.84,
CC(C)C(=O)NC(=S)Nc1ccc(S(=O)(=O)NCCc2ccccc2)cc1 [AD4-10611],38.285,20,30.9,
CCCC(=O)NC(=S)Nc1ccc(S(=O)(=O)NCCc2ccccc2)cc1 [AD4-10612],30.841,13.2,11.7,
CC(C)(C)C(=O)NC(=S)Nc1ccc(S(=O)(=O)NCCc2ccccc2)cc1 [AD4-10613],35.514,11.8,13.9,
O=c1cc(CN2CCN(Cc3ccc4c(c3)OCO4)CC2)c2cc(Cl)c(O)cc2o1 [AD4-10618],,,,"MTT Screen (second value) (MDBK line; [6]): non-convergent; IC50 [1, 3]: 18.4 µM; ICW Screen (EGFR): −3.062"
CCc1cc2c(CN3CCN(C(c4ccccc4)c4ccccc4)CC3)cc(=O)oc2cc1O [AD4-10619],,,,"IC50 (MDBK line; [4]): 3.06 µM; IC50 [1, 5]: 2.97 µM; MTT Screen, % @ […] ([1]; Table 11, @ […], cell line not stated): 87% @ 2.6 μM; ICW Screen (EGFR): −44.55"
CC(=O)NC(=S)Nc1ccc(S(=O)(=O)N2CCc3ccccc32)cc1 [AD4-10623],46.185,38.3,25.8,
O=C(CCc1ccco1)NC(=S)Nc1ccc(S(=O)(=O)NCCc2ccccc2)cc1 [AD4-10624],49.448,16.8,25.6,
CC(C)CC(=O)NC(=S)Nc1ccc(S(=O)(=O)N2CCc3ccccc32)cc1 [AD4-10626],50.05,19.6,5.31,
CCc1cc2c(CN3CCN(Cc4ccccc4)CC3)cc(=O)oc2cc1O [AD4-10631],,,,"IC50 (MDBK line; [9]): 37.5 µM; IC50 [1, 10]: 35.6 µM; ICW Screen (EGFR): 104.48"
O=c1cc(CN2CCN(C(c3ccccc3)c3ccccc3)CC2)c2ccc(O)c(O)c2o1 [AD4-10633],,,,"MTT Screen (second value) (MDBK line; [6]): non- convergent; IC50 [1, 13]: 5.2 µM; MTT Follow-up (first value) ([1]; Table 11, first of x/y(ratio): A431, unit not given): Not Convergent; ICW Screen (EGFR): 46.398"
Cc1c(O)ccc2c(CN3CCN(Cc4ccc5c(c4)OCO5)CC3)cc(=O)oc12 [AD4-10637],,,,"IC50 (MDBK line; [2]): 41.3 µM; IC50 [1, 13]: 20.8 µM; ICW Screen (EGFR): 30.057"

Structure (SMILES),ICW Screen (ICW Inhibition) (EGFR),IC50 (MDBK line; [11]) [µM],"IC50 [1, 12] [µM]",other results
O=c1cc(CN2CCN(Cc3ccccc3)CC2)c2cc3c(cc2o1)OCO3 [AD4-10639],,,,"MTT Screen (second value) (MDBK line; [6]): non-convergent; IC50 [1, 3]: 42.6 µM; ICW Screen (EGFR): 43.695"
Cc1ccc(NS(=O)(=O)c2ccc(NC(=S)NC(=O)C3CCC3)cc2)cc1C [AD4-10676],59.637,8.84,,"IC50 [1, 8]: 18.6 µM"
CC(=O)c1cccc(NC(=S)Nc2ccc(NS(=O)(=O)c3ccc(C)cc3)cc2)c1 [AD4-10693],,,,"IC50 (MDBK line; [14]): 35.9 µM; IC50 [1, 15]: 48.2 µM; ICW assay (EGFR): 26.8206"
CC(=O)c1ccc(NC(=S)Nc2ccc(S(=O)(=O)Nc3ccccc3C)cc2)cc1 [AD4-10700],,,,"IC50 (MDBK line; [14]): 14.3 µM; IC50 [1, 15]: 14.7 µM; ICW assay (EGFR): 52.5996"
O=C(NC(=S)Nc1ccc(S(=O)(=O)Nc2ccccc2)cc1)c1ccco1 [AD4-10705],47.764,25.2,23.1,
Cc1ccccc1C(=O)NC(=S)Nc1ccc(S(=O)(=O)Nc2ccccc2)cc1 [AD4-10706],55.497,23.1,15.1,
Cc1ccc(NS(=O)(=O)c2ccc(NC(=S)NC(=O)C3CCCCC3)cc2)cc1C [AD4-10708],37.233,35.9,16.6,
CCOc1ccc(NS(=O)(=O)c2ccc(NC(=S)Nc3ccccc3)cc2)cc1 [AD4-11344],,,,"IC50 (MDBK line; [14]): 15.3 µM; IC50 [1, 15]: 15.1 µM; ICW assay (EGFR): 34.1727"
CCc1nnc(NS(=O)(=O)c2ccc(NC(=S)NC(=O)/C=C/c3ccccc3)cc2)s1 [AD4-11367],46.872,43.6,43.3,
COc1cc(NS(=O)(=O)c2ccc(NC(=S)NC(=O)/C=C/c3ccccc3)cc2)nc(OC)n1 [AD4-11369],43.546,,48.6,IC50 (MDBK line; [7]): 47.2 µM
COc1ccc(OCC(=O)NC(=S)Nc2ccc(S(=O)(=O)Nc3cc(C)cc(C)c3)cc2)cc1 [AD4-11396],30.745,,,"IC50 (MDBK line; [7]): 21.2 µM; IC50 [1, 8]: 25.1 µM"
Cc1cc(Cl)ccc1OCC(=O)NC(=S)Nc1ccc(S(=O)(=O)N2CCCCC2)cc1 [AD4-11402],33.635,17.4,11.8,
CCOc1ccc(NS(=O)(=O)c2ccc(NC(=S)NC(=O)CC)cc2)cc1 [AD4-11409],74.94,11.7,17.2,
CCN(c1ccccc1)S(=O)(=O)c1ccc(NC(=S)NC(=O)Cc2ccccc2)cc1 [AD4-11412],31.958,20,11.4,
O=C(NC(=S)Nc1ccc(S(=O)(=O)Nc2ccccc2)cc1)C1CC1 [AD4-11413],46.23,,,"IC50 (MDBK line; [7]): 29.8 µM; IC50 [1, 8]: 31.4 µM"
COc1ccc(CC(=O)NC(=S)Nc2ccc(S(=O)(=O)NCCc3ccccc3)cc2)cc1 [AD4-11415],35.841,10.5,15.7,
O=C(Cc1ccccc1)NC(=S)Nc1ccc(S(=O)(=O)Nc2ccccc2)cc1 [AD4-11416],53.517,,,"IC50 (MDBK line; [7]): 13.5 µM; IC50 [1, 8]: 15.4 µM"
Cc1ccc(NS(=O)(=O)c2ccc(NC(=S)NC(=O)C3CCCCC3)cc2)cc1C [AD4-11417],40.711,,,"IC50 (MDBK line; [7]): 49.3 µM; IC50 [1, 8]: 25.5 µM"
